# From PubChem BioAssay (NCI)
#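 1) Cells in 96-well plates. 2) Compound, 48 h, 5 concentrations. 3) Linear interpolation between surrounding doses. 4) Unreached endpoint = highest concentration. GI50 is the concentration that inhibits growth by half. TGI: total growth inhibition.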
# Experiments:
# Assay in all cases: growth of human tumour cells (NCI), 48 h
# 786-0 renal = system: 786-0 renal
# A498 renal = system: A498 renal
# A549 NSCLC = system: A549 NSCLC
# ACHN renal = system: ACHN renal
# BT-549 breast = system: BT-549 breast
# CAKI-1 renal = system: CAKI-1 renal
# CCRF-CEM leukemia = system: CCRF-CEM leukemia
# COLO 205 colon = system: COLO 205 colon
# DU-145 prostate = system: DU-145 prostate
# EKVX NSCLC = system: EKVX NSCLC
# HCC-2998 colon = system: HCC-2998 colon
# HCT-116 colon = system: HCT-116 colon
# HCT-15 colon = system: HCT-15 colon
# HL-60(TB) leukemia = system: HL-60(TB) leukemia
# HOP-62 NSCLC = system: HOP-62 NSCLC
# HOP-92 NSCLC = system: HOP-92 NSCLC
# HS 578T breast = system: HS 578T breast
# HT29 colon = system: HT29 colon
# IGROV1 ovarian = system: IGROV1 ovarian
# K-562 leukemia = system: K-562 leukemia
# KM12 colon = system: KM12 colon
# LOX IMVI melanoma = system: LOX IMVI melanoma
# M14 melanoma = system: M14 melanoma
# MALME-3M melanoma = system: MALME-3M melanoma
# MCF7 breast = system: MCF7 breast
# MDA-MB-435 = system: MDA-MB-435
# MDA-MB-468 breast = system: MDA-MB-468 breast
# MOLT-4 leukemia = system: MOLT-4 leukemia
# NCI-H226 lung = system: NCI-H226 lung
# NCI-H23 lung = system: NCI-H23 lung
# NCI-H460 lung = system: NCI-H460 lung
# NCI-H522 lung = system: NCI-H522 lung
# NCI/ADR-RES ovarian = system: NCI/ADR-RES ovarian
# OVCAR-3 ovarian = system: OVCAR-3 ovarian
# OVCAR-4 ovarian = system: OVCAR-4 ovarian
# OVCAR-5 ovarian = system: OVCAR-5 ovarian
# OVCAR-8 ovarian = system: OVCAR-8 ovarian
# PC-3 prostate = system: PC-3 prostate
# RPMI-8226 leukemia = system: RPMI-8226 leukemia
# RXF 393 renal = system: RXF 393 renal
# SF-268 CNS = system: SF-268 CNS
# SF-295 CNS = system: SF-295 CNS
# SF-539 CNS = system: SF-539 CNS
# SK-MEL-2 melanoma = system: SK-MEL-2 melanoma
# SK-MEL-28 melanoma = system: SK-MEL-28 melanoma
# SK-MEL-5 melanoma = system: SK-MEL-5 melanoma
# SK-OV-3 ovarian = system: SK-OV-3 ovarian
# SN12C renal = system: SN12C renal
# SNB-19 CNS = system: SNB-19 CNS
# SNB-75 CNS = system: SNB-75 CNS
# SW-620 colon = system: SW-620 colon
# T-47D breast = system: T-47D breast
# TK-10 renal = system: TK-10 renal
# U251 CNS = system: U251 CNS
# UACC-257 melanoma = system: UACC-257 melanoma
# UACC-62 melanoma = system: UACC-62 melanoma
smiles,measurement,setting,value
COc1cccc(-c2ccc(/C=N/NC(=O)c3[nH]c4ccc(Br)cc4c3-c3ccccc3)o2)c1,GI50,786-0 renal,2.84 µM
same,TGI,786-0 renal,8.73 µM
same,GI50,A498 renal,93.2 µM
same,TGI,A498 renal,> 100 µM
same,GI50,A549 NSCLC,3.55 µM
same,TGI,A549 NSCLC,17.7 µM
same,GI50,ACHN renal,5.43 µM
same,TGI,ACHN renal,> 100 µM
same,GI50,BT-549 breast,2.8 µM
same,TGI,BT-549 breast,7.06 µM
same,GI50,CAKI-1 renal,11.4 µM
same,TGI,CAKI-1 renal,> 100 µM
same,GI50,CCRF-CEM leukemia,4.19 µM
same,TGI,CCRF-CEM leukemia,9.66 µM
same,GI50,COLO 205 colon,2.48 µM
same,TGI,COLO 205 colon,7.74 µM
same,GI50,DU-145 prostate,4.19 µM
same,TGI,DU-145 prostate,> 100 µM
same,GI50,EKVX NSCLC,6.71 µM
same,TGI,EKVX NSCLC,> 100 µM
same,GI50,HCC-2998 colon,4.16 µM
same,TGI,HCC-2998 colon,72.9 µM
same,GI50,HCT-116 colon,3.33 µM
same,TGI,HCT-116 colon,12.3 µM
same,GI50,HCT-15 colon,3.34 µM
same,TGI,HCT-15 colon,16.9 µM
same,GI50,HL-60(TB) leukemia,2.21 µM
same,TGI,HL-60(TB) leukemia,5.08 µM
same,GI50,HOP-62 NSCLC,3.54 µM
same,TGI,HOP-62 NSCLC,15.3 µM
same,GI50,HOP-92 NSCLC,12.8 µM
same,TGI,HOP-92 NSCLC,46 µM
same,GI50,HS 578T breast,3.73 µM
same,TGI,HS 578T breast,41.2 µM
same,GI50,HT29 colon,2.36 µM
same,TGI,HT29 colon,5.47 µM
same,GI50,IGROV1 ovarian,4.6 µM
same,TGI,IGROV1 ovarian,> 100 µM
same,GI50,K-562 leukemia,2.89 µM
same,TGI,K-562 leukemia,12.9 µM
same,GI50,KM12 colon,3.96 µM
same,TGI,KM12 colon,49.6 µM
same,GI50,LOX IMVI melanoma,3.84 µM
same,TGI,LOX IMVI melanoma,16.6 µM
same,GI50,M14 melanoma,3.49 µM
same,TGI,M14 melanoma,> 100 µM
same,GI50,MALME-3M melanoma,3.72 µM
same,TGI,MALME-3M melanoma,32.6 µM
same,GI50,MCF7 breast,3.5 µM
same,TGI,MCF7 breast,> 100 µM
same,GI50,MDA-MB-435,2.72 µM
same,TGI,MDA-MB-435,8.57 µM
same,GI50,MDA-MB-468 breast,2.29 µM
same,TGI,MDA-MB-468 breast,6.38 µM
same,GI50,MOLT-4 leukemia,3.34 µM
same,TGI,MOLT-4 leukemia,12.3 µM
same,GI50,NCI-H226 lung,10.2 µM
same,TGI,NCI-H226 lung,50.6 µM
same,GI50,NCI-H23 lung,5.23 µM
same,TGI,NCI-H23 lung,40.3 µM
same,GI50,NCI-H460 lung,3.26 µM
same,TGI,NCI-H460 lung,18 µM
same,GI50,NCI-H522 lung,2 µM
same,TGI,NCI-H522 lung,4.72 µM
same,GI50,NCI/ADR-RES ovarian,2.4 µM
same,TGI,NCI/ADR-RES ovarian,6.26 µM
same,GI50,OVCAR-3 ovarian,2.48 µM
same,TGI,OVCAR-3 ovarian,8.6 µM
same,GI50,OVCAR-4 ovarian,26.2 µM
same,TGI,OVCAR-4 ovarian,> 100 µM
same,GI50,OVCAR-5 ovarian,4.31 µM
same,TGI,OVCAR-5 ovarian,44.9 µM
same,GI50,OVCAR-8 ovarian,2.39 µM
same,TGI,OVCAR-8 ovarian,5.57 µM
same,GI50,PC-3 prostate,3.96 µM
same,TGI,PC-3 prostate,75 µM
same,GI50,RPMI-8226 leukemia,3.05 µM
same,TGI,RPMI-8226 leukemia,10.9 µM
same,GI50,RXF 393 renal,2.37 µM
same,TGI,RXF 393 renal,5.93 µM
same,GI50,SF-268 CNS,4.94 µM
same,TGI,SF-268 CNS,48.3 µM
same,GI50,SF-295 CNS,3.16 µM
same,TGI,SF-295 CNS,14.1 µM
same,GI50,SF-539 CNS,2.35 µM
same,TGI,SF-539 CNS,5.51 µM
same,GI50,SK-MEL-2 melanoma,3.04 µM
same,TGI,SK-MEL-2 melanoma,9.76 µM
same,GI50,SK-MEL-28 melanoma,7.18 µM
same,TGI,SK-MEL-28 melanoma,52.9 µM
same,GI50,SK-MEL-5 melanoma,2.94 µM
same,TGI,SK-MEL-5 melanoma,11.3 µM
same,GI50,SK-OV-3 ovarian,3.61 µM
same,TGI,SK-OV-3 ovarian,36.2 µM
same,GI50,SN12C renal,4.13 µM
same,TGI,SN12C renal,18.9 µM
same,GI50,SNB-19 CNS,3.84 µM
same,TGI,SNB-19 CNS,20.2 µM
same,GI50,SNB-75 CNS,2.87 µM
same,TGI,SNB-75 CNS,15.1 µM
same,GI50,SW-620 colon,4.6 µM
same,TGI,SW-620 colon,> 100 µM
same,GI50,T-47D breast,7.94 µM
same,TGI,T-47D breast,> 100 µM
same,GI50,TK-10 renal,29.1 µM
same,TGI,TK-10 renal,> 100 µM
same,GI50,U251 CNS,3.44 µM
same,TGI,U251 CNS,12.7 µM
same,GI50,UACC-257 melanoma,6.86 µM
same,TGI,UACC-257 melanoma,69.2 µM
same,GI50,UACC-62 melanoma,4.17 µM
same,TGI,UACC-62 melanoma,> 100 µM
